Test [1] concerns normal lung fibroblasts. Kind of test: Fibronectin in supernatants of TGFbeta-treated normal lung fibroblasts. The class given is cell-based, human. The settings on record: 10 μg/ml to 80 μg/ml, 72 hours. The procedure:
Normal lung fibroblasts were treated with TGFbeta without or with increasing concentrations for 96-87. Supernatants were assessed for fibronectin levels after 72 hours of treatment. 96-87 had no effect on TGFbeta-induced FN production, even with increasing concentration from 10 μg/ml to 80 μg/ml (FIG. 18).

The test system of test [2] is systemic sclerosis pulmonary fibrosis lung tissues. The test can be described thus: MMP-1 induction in systemic sclerosis pulmonary fibrosis lung tissues in organ culture. The class given is cell-based, human. Conditions: 10 μg/ml, TGFbeta, 120 hrs. The procedure: Systemic sclerosis pulmonary fibrosis lung tissues were divided into equal size cores. Lung tissues in organ culture were treated with different peptide fragments derived from endostatin at a final concentration of 10 μg/ml in the presence of TGFbeta for 120 hrs. The induction of matrix metalloprotease (MMP)-1 (also known as collagenase) in media conditioned by the lung tissues was examined as a measure of the ability of the peptide to reduce fibrosis and promote extracellular matrix degradation.

For test [3], the system named is normal lung fibroblasts. The test can be described thus: Extracellular matrix proteins in TGFbeta-treated normal lung fibroblasts, immunoblotting. The class given is cell-based, human. The settings on record: 10 μg/ml peptide. The protocol: Normal lung fibroblasts were treated with vehicle as control (VC) or TGFbeta (T) in the presence or absence of 10 μg/ml of various peptide fragments. The extracellular matrix proteins, Collagen 1A1 and fibronectin (FN) were assessed using immunoblotting.

The subject of test [4] is fibroblasts from lungs of patients with SSc. The test can be described thus: Gene expression in fibroblasts from lungs of patients with systemic sclerosis (SSc). The class given is cell-based, human. Conditions: SSc lung fibroblasts. The protocol: […] RNA was extracted and levels of alpha smooth muscle actin (SMA) measured by qRT-PCR.
SSc fibroblasts were treated with 10 μg/ml BioE4-03 for 72 hours. RNA was extracted and used to measure SMA and Collagen 1A2.

Test [5] has as its system fibroblasts from lung tissues of normal donors. The test can be described thus: Alpha smooth muscle actin qRT-PCR in TGFbeta-treated fibroblasts from lung tissues of normal donors. The format is cell-based, human. The settings on record: 48 hours. The protocol: Fibroblasts were treated with TGFbeta with or without peptide Bio96-17 for 48 hours. RNA was extracted and levels of alpha smooth muscle actin (SMA) measured by qRT-PCR.

The subject of test [6] is lung tissues of normal donors. Kind of test: Lung tissues of normal donors in organ culture after induction of fibrosis with TGFbeta. The class given is cell-based, human. The settings on record: normal donor lung tissue; for hydroxyproline levels: fibrosis induced with TGFbeta.
Another test concerns tumors. The test can be described thus: Histologic analysis of tumors (H & E, Masson Trichrome). The format is in vivo, mouse. Conditions: for collagen bundles in the tumors (Masson Trichrome stain): compared to tumors from vehicle treated mice. The procedure: Histological analysis of tumors treated with vehicle alone, or with BioE4-03 or Bio96 peptides was performed.
For test [7], the system named is mc-38 colon adenocarcinoma tumor cells. Kind of test: mc-38 colon adenocarcinoma tumor growth in mice, oral gavage. Conditions: 100 μg/mouse oral gavage twice/week; for mean rate of increase in the tumor volume at day 21: PBS control 151.1 mm^3 per day; for mean tumor volume at day 21 (model-based estimate): PBS control 1492.1 mm^3. The format is in vivo. The protocol:
(§1) For each of the experiments, descriptive statistics (means and standard deviations) for tumor volumes were calculated over time for each experimental group (i.e. Experiment 1: Control vs. BioE4 (FIG. 1); Experiment 2: PBS, Bio96, and BioE4-03 (FIG. 5)). Since tumor growth tends to be curvilinear, general linear mixed models (GLMMs) were created to estimate treatment-specific growth curves over time and to make comparisons between the peptide treatments and control. Separate GLMMs were constructed for each experiment, and each GLMM included random effects for each mouse, to control for the fact that the repeated volume measurements within a given mouse were correlated with one another. Tumor volume served as the dependent variable in each model, while time (in days), […], treatment x time, and treatment x time^2 were included as independent variables. Using these models, the estimated mean tumor volumes at specific selected time points and the mean rate of change in the tumor volumes at specific selected time points were compared. If a mouse's tumor grew too large, it was sacrificed; however, all tumor volumes measured prior to sacrifice were included in the modeling process. SAS v9.4 (SAS Institute, Cary, NC) was used for all analyses. All hypothesis tests were 2-sided, and p-values <0.05 were considered statistically significant.
sMIC tolerant transgenic (MB481 strain) mice (Liu et al, Perturbation of NK cell peripheral homeostasis accelerates prostate carcinoma metastasis. J. Clin. Invest. 123:4410, 2013) were injected with 1×10^5 mc-38 colon adenocarcinoma tumor cells via subcutaneous injection When tumor size reached approximately 75 mm^3, treatment was started. start treatment at four group. Bio96 100 μg/mouse, BioE4-03 100 μg/mouse, were given via oral gavage in a volume of 100 μl. PBS (100 μl) was given as a vehicle control. Peptides and vehicle were administered twice/week. Tumor volume was measured 3 times per week.
Direct comparisons were made between the PBS control and Bio96 and between PBS and BioE4-03 with respect to the mean tumor volumes at Day 21 and the mean rate of change in the tumor volumes at Day 21 (FIG. 5 through FIG. 7).

Test [8] has as its system A549 cells (human lung adenocarcinoma cells). The test can be described thus: Gene expression in A549 cells by real-time PCR. The settings on record: A549, 10 μg/ml, 48 hours. The class given is cell-based. The protocol:
(§2) The expression of several genes implicated in tumorigenesis, angiogenesis and cancer stem cell renewal was measured in a variety of tumor types and organs.
Tumor cells were treated with 10 μg/ml BioE4-03 for 48 hours. RNA was extracted and analyzed by real-time PCR. N=6-8 independent experiments. Statistical analysis was done using the paired t-test.

Test [9] deals with lung tissues of patients with SSc. Kind of test: Hydroxyproline in lung tissues of patients with SSc in organ culture. The format is cell-based, human. The settings on record: SSc lung tissue, organ culture 72 hours.
For test [10], the system named is fibroblasts from lungs of patients with IPF. The test can be described thus: Gene expression in fibroblasts from lungs of patients with idiopathic pulmonary fibrosis (IPF). Conditions: IPF lung fibroblasts. The format is cell-based, human.
Another test relates to skin tissues from donors. The test can be described thus: Gene expression in donor skin tissues with TGFbeta-induced fibrosis. The class given is cell-based, human. Conditions: skin tissue. An excerpt: BioE4-03 further reduces Col1A1 and fibronectin (FN) gene expression in skin tissues from donors in which fibrosis was induced with TGFbeta (FIG. 25).
The subject of test [11] is HCT116T cells (human colon carcinoma cells). Kind of test: Gene expression in HCT116T cells by real-time PCR. The class given is cell-based. Conditions: 10 μg/ml, 48 hours. The procedure: as §2
Tumor cells were treated with 10 μg/ml BioE4-03 for 48 hours. RNA was extracted and analyzed by real-time PCR. N=3-4 independent experiments (except for uPAR where n=2).

The subject of test [12] is human lung adenocarcinoma cells (A549). Kind of test: IL-6 mRNA by qPCR in A549 cells. The class given is cell-based. Conditions: A549, 48 hours, relative to vehicle controls. The procedure:
(§3) IL-6 mRNA levels were measured via qPCR in human lung adenocarcinoma cells (A549) treated for 48 hours with BioE4-03 peptide. […] For comparison, a parallel experiment was done using non-biotinylated E4-03. […] Additionally, IL-6 protein levels in the supernatant of A549 cells were measured by ELISA after 72 hours of treatment with E4-03 peptide.

Test [13] deals with lung tissues of patients with IPF. The test can be described thus: Hydroxyproline in lung tissues of patients with IPF in organ culture. The format is cell-based, human. Conditions: IPF lung tissue, organ culture 72 hours.
The subject of test [14] is TRAMP C-2 mouse prostate tumor cells. The settings on record: C57BL6 mice, 50 μg/dose oral gavage twice per week, day 15, vs water vehicle. The protocol:
as §1

The subject of test [15] is human lung adenocarcinoma cells (A549). The test can be described thus: IL-6 protein by ELISA in supernatant of A549 cells. The settings on record: A549, 72 hours, relative to vehicle controls. The class given is cell-based. The protocol:
as §3

Where no end group is shown, it is not given here. The star is where a group is joined. Biotin = O=C1N[C@H]2[C@H](CS[C@H]2CCCCC(=O)*)N1

“ATGQASSLLGGRLLGQ (C-terminal endostatin-derived peptide 96-87)”: the “TGFbeta-induced FN production (supernatants)” value with normal lung fibroblasts [1] was “no effect”.

With “ATGQASSLLGGRLLGQSAASCHHA (C-terminal endostatin-derived peptide 96-17)”, the “MMP-1 production in media conditioned by the lung tissues” value (from here on “MMP-1 production in media conditioned”) in test [2] was “induced MMP-1 production”. Further, in the test with normal lung fibroblasts [3], the “Col1A1 levels induced by TGFbeta (immunoblotting)” value is reported as “effective at reducing” and the “FN levels induced by TGFbeta (immunoblotting)” value is “effective at reducing”.

As to “Bio96-17: SEQ ID NO:4 being biotinylated at its N-terminus (Biotin-ATGQASSLLGGRLLGQSAASCHHA; not fully specified (C-terminus))”, in test [4] (Bio96-17 experiment), the Coll1A2 levels entry is reported as “significant reduction” and the SMA levels result is listed as “significant reduction”. The “TGFbeta-induced SMA levels (qRT-PCR)” value in test [5] is given as “significant reduction”. Also, in test [6] (TGFbeta, cultured 120 hours), the “secreted Col1A1 protein levels” value was “significant reduction”. Also, in [6], the hydroxyproline levels entry is given as “significant reductions”.

For the substance “Biotin-NH2-ATGQASSLL-CONH2 (Biotin-ATGQASSLL-NH2; SMILES CC(C)C[C@H](NC(=O)[C@H](CC(C)C)NC(=O)[C@H](CO)NC(=O)[C@H](CO)NC(=O)[C@H](C)NC(=O)[C@H](CCC(N)=O)NC(=O)CNC(=O)[C@@H](NC(=O)[C@H](C)NC(=O)CCCC[C@@H]1SC[C@@H]2NC(=O)N[C@@H]21)[C@@H](C)O)C(N)=O) [Bio96]”, the “collagen bundles in the tumors (Masson Trichrome stain)” value with tumors is listed as “thinner collagen bundles”. The “tumor cell arrangement (H & E)” value with tumors (tumors from treated mice) is listed as “looser cell arrangement”. Also, in test [7], the “mean rate of increase in the tumor volume at day 21” value was 90.6 mm^3 per day and the “mean tumor volume at day 21 (model-based estimate)” value was 871.4 mm^3.

“Biotin-NH2-SYCETWRTEAPSATGQASSLLGGRLLGQSAASCHHA-CONH2 [BioE4-03]”: in [8], the “Expression of IL-6” value is on record as “significantly reduced”, the “Expression of LOX” value is listed as “significantly reduced”, the “Expression of PAI-I” value was “significantly reduced” and the “Expression of PDGF-A” value is “significantly reduced”. In [8], the “Expression of VEGF-A” value is reported as “significantly reduced”, the “Expression of uPA” value is listed as “significantly reduced” and the “Expression of uPAR” value is reported as “significantly reduced”. The hydroxyproline levels entry in test [9] was “significant reduction”. For the same substance, in test [4] (10 μg/ml, 72 hours), the Coll1A2 levels result is reported as “significant reduction” and the SMA levels result is “significant reduction”. Besides, in test [10], the Coll1A2 levels entry is “trend towards decrease” and the SMA levels result is “trend towards decrease”. For the same substance, the “collagen bundles in the tumors (Masson Trichrome stain)” value with tumors is reported as “thinner collagen bundles”. In the test with tumors (tumors from treated mice), the “tumor cell arrangement (H & E)” value is recorded as “looser cell arrangement” and the “tumor necrosis (H & E)” value was “notable necrosis”. In addition, in the test on skin tissues from donors, the Col1A1 gene expression entry is recorded as “reduces” and the “fibronectin (FN) gene expression” value is “reduces”. In [11], the “Expression of IL-6” value is on record as “significantly reduced”, the “Expression of PAI-I” value was “significantly reduced”, the “Expression of PDGF-A” value is “significantly reduced” and the “Expression of VEGF-A” value is “significantly reduced”. For the same substance, in [11], the “Expression of uPA” value was “significantly reduced”. Also, the “Expression of uPAR” value in [11] (n=2) was “significantly reduced”. Besides, in test [12], the “expression of IL-6 mRNA” value is “significantly reduced”. In addition, the hydroxyproline levels entry in test [13] is on record as “significant reduction”. For the same substance, in [7], the “mean rate of increase in the tumor volume at day 21” value worked out at 76.0 mm^3 per day and the “mean tumor volume at day 21 (model-based estimate)” value was 767.7 mm^3. In test [6], the hydroxyproline levels result was “significant reductions”.

As to “Biotin-NH2-SYCETWRTEAPSATGQASSLLGGRLLGQSAASCHHAYIVLCIENSFMT-CONH2 [BioE4]”, in [14], the “mean rate of increase in the tumor volume on day 15, Control vs. peptide group” value is recorded as “significantly (p=0.02) greater in the Control group” and the “mean tumor volume at day 15 (model-based estimate), Control vs. peptide group” value is reported as “significantly (p=0.0001) greater in the Control group”.

“SYCETWRTEAPSATGQASSLL (C-terminal endostatin-derived peptide 91-96)”: the “MMP-1 production in media conditioned” value in test [2] is on record as “no effect”.

Consider “SYCETWRTEAPSATGQASSLLGGRLLGQ (C-terminal endostatin-derived peptide 91-97) [91-87]”, for which, in test [2], the “MMP-1 production in media conditioned” value is “no effect”.

Regarding “SYCETWRTEAPSATGQASSLLGGRLLGQSAASCHHA (C-terminal endostatin-derived peptide E4-03)”, the “MMP-1 production in media conditioned” value in test [2] is on record as “induced MMP-1 production”. Also, in test [12], the “expression of IL-6 mRNA” value was “reduced”. Moreover, in the test on normal lung fibroblasts [3], the “Col1A1 levels induced by TGFbeta (immunoblotting)” value is reported as “effective at reducing” and the “FN levels induced by TGFbeta (immunoblotting)” value is “effective at reducing”. The “IL-6 protein levels in the supernatant” value in [15] was “significantly reduced”.

The values are drawn from patent US12721881B2, “Endostatin peptides for the treatment of tumors, fibrosis and acute lung injury” (MUSC Foundation for Research Development, priority 2019, dated 2026).
